Assay results taken from PMC6271009, “Design and Synthesis of Thiazolo[5,4-f]quinazolines as DYRK1A Inhibitors, Part II” (Molecules, 2014).

Assays:
DYRK1A = target: T1, DYRK1A (Homo sapiens, UniProt Q13627); experiment: DYRK1A kinase assay, Reaction Biology Corporation HotSpot technology (33P ATP); type: biochemical; conditions: for IC50: purified recombinant kinase, 10 µM ATP, 120 min, room temperature
T1 construct: Purified recombinant kinase was incubated with serial 3-fold dilutions of test compounds; purchased Reaction Biology Corporation

DYRK1B = target: T2, DYRK1B (Homo sapiens, UniProt Q9Y463); experiment: DYRK1B kinase assay, Reaction Biology Corporation HotSpot technology (33P ATP); type: biochemical; conditions: purified recombinant kinase, 10 µM ATP, 120 min, room temperature
T2 construct: Purified recombinant kinase was incubated with serial 3-fold dilutions of test compounds; purchased Reaction Biology Corporation

[1] = test system: B- and T-ALL cell lines and primary human pediatric ALL samples; parameters: method as in doi:10.1182/blood-2013-06-507368; conditions: cited from earlier work
[2] = test system: patient-derived ovarian cancer ascites spheroids; conditions: cited from earlier work
Panc1 xenograft = conditions: cited from earlier work

T2 sequence (Q9Y463 whole entry): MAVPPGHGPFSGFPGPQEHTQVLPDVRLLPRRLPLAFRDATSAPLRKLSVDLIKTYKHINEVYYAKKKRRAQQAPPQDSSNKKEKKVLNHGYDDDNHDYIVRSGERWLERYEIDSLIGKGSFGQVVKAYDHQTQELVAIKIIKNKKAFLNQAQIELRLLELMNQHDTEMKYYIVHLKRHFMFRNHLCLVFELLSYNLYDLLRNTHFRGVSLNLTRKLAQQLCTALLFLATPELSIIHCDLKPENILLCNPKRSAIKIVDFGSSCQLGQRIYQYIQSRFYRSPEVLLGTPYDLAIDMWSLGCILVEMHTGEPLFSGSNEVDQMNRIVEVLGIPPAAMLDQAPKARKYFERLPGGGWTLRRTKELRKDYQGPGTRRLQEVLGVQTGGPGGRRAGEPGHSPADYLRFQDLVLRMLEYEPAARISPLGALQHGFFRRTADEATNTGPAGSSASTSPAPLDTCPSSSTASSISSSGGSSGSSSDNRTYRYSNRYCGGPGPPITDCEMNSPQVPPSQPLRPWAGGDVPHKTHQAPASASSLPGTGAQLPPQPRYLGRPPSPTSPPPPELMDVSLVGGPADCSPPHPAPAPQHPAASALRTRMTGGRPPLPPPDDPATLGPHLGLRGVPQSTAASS

| IC50 (DYRK1A) [nM] | IC50 (DYRK1B) [nM] | SMILES | also measured |
| --- | --- | --- | --- |
| 6.06 | 9.64 | COC(=N)c1nc2ccc3ncnc(Nc4ccc(F)cc4)c3c2s1 [Compound 8e, Methyl 9-(4-fluorophenylamino)thiazolo[5,4-f]quinazoline-2-carbimidate] |  |
| 0.94 | 1.07 | COC(=N)c1nc2ccc3ncnc(Nc4ccc(F)cc4F)c3c2s1 [Compound 8k, Methyl 9-(2,4-difluorophenylamino)thiazolo[5,4-f]quinazoline-2-carbimidate] |  |
| 66.8 |  | COC(=N)c1nc2ccc3ncnc(Nc4ccc(Cl)c(Cl)c4)c3c2s1 [Compound 8d, Methyl 9-(3,4-dichlorophenylamino)thiazolo[5,4-f]quinazoline-2-carbimidate] |  |
|  |  | COC(=N)c1nc2ccc3ncnc(Nc4ccc(OC)cc4F)c3c2s1 [Compound 8i, Methyl 9-(2-fluoro-4-methoxyphenylamino)thiazolo[5,4-f]quinazoline-2-carbimidate] | Apoptosis induction in B- and T-ALL cell lines and primary human pediatric ALL samples [1]: dose-dependently induce apoptosis; Apoptosis of primary ALL cells resistant to cytarabine ([1]; cytarabine-resistant primary ALL cells): induced apoptosis |
| 54.8 | 186 | COC(=N)c1nc2ccc3ncnc(Nc4ccc(C(F)(F)F)cc4)c3c2s1 [Compound 8l, Methyl 9-(4-(trifluoromethyl)phenylamino)thiazolo[5,4-f]quinazoline-2-carbimidate] |  |
|  |  | COC(=O)c1nc2ccc3ncnc(Nc4ccc5c(c4)OCO5)c3c2s1 [Compound 13, Methyl 9-(benzo[d][1,3]dioxol-5-ylamino)thiazolo[5,4-f]quinazoline-2-carboxylate] | Affinity for DYRK1A, result in words (DYRK1A; compared with parent methyl carbimidate / secondary amine analogs): mostly inactive |
| 436 | 486 | COC(=N)c1nc2ccc3ncnc(Nc4cc(OC)c(OC)c(OC)c4)c3c2s1 [Compound 7l, Methyl 9-(3,4,5-trimethoxyphenylamino)thiazolo[5,4-f]quinazoline-2-carbimidate] |  |
| 6.02 | 7.72 | CCOC(=N)c1nc2ccc3ncnc(Nc4ccc5c(c4)OCO5)c3c2s1 [Compound 12a, Ethyl 9-(benzo[d][1,3]dioxol-5-ylamino)thiazolo[5,4-f]quinazoline-2-carbimidate] |  |
| 3.6 | 6.55 | COC(=N)c1nc2ccc3ncnc(Nc4ccc(Br)cc4F)c3c2s1 [Compound 8f, Methyl 9-(4-bromo-2-fluorophenylamino)thiazolo[5,4-f]quinazoline-2-carbimidate] |  |
| 0.98 | 2.83 | COC(=N)c1nc2ccc3ncnc(Nc4ccc(C)cc4)c3c2s1 [Compound 9b, Methyl 9-(p-tolylamino)thiazolo[5,4-f]quinazoline-2-carbimidate] |  |
| 1.13 | 4.74 | COC(=N)c1nc2ccc3ncnc(Nc4ccc(Cl)cc4)c3c2s1 [Compound 8a, Methyl 9-(4-chlorophenylamino)thiazolo[5,4-f]quinazoline-2-carbimidate] |  |
| 33.9 | 37.3 | N=C(OCc1ccccc1)c1nc2ccc3ncnc(Nc4ccc5c(c4)OCO5)c3c2s1 [Compound 12c, Benzyl 9-(benzo[d][1,3]dioxol-5-ylamino)thiazolo[5,4-f]quinazoline-2-carbimidate] |  |
| 13.6 | 18.8 | COC(=N)c1nc2ccc3ncnc(Nc4cccc(Cl)c4)c3c2s1 [Compound 8b, Methyl 9-(3-chlorophenylamino)thiazolo[5,4-f]quinazoline-2-carbimidate] |  |
| 2.2 | 20.6 | CC(C)(C)CNc1ncnc2ccc(-c3ccc4c(c3)OCO4)cc12 [NCGC-00189310, reference compound] |  |
| 125 | 218 | CC(C)OC(=N)c1nc2ccc3ncnc(Nc4ccc5c(c4)OCO5)c3c2s1 [Compound 12b, Isopropyl 9-(benzo[d][1,3]dioxol-5-ylamino)thiazolo[5,4-f]quinazoline-2-carbimidate] | melting point: 224 to 226 °C |
| 4.91 | 5.68 | COC(=N)c1nc2ccc3ncnc(Nc4ccc(O)c([N+](=O)[O-])c4)c3c2s1 [Compound 7k, Methyl 9-(4-hydroxy-3-nitrophenylamino)thiazolo[5,4-f]quinazoline-2-carbimidate] |  |
| 35.6 | 64.3 | COC(=N)c1nc2ccc3ncnc(Nc4ccc(N(C)C)cc4)c3c2s1 [Compound 9h, Methyl 9-(4-(dimethylamino)phenylamino)thiazolo[5,4-f]quinazoline-2-carbimidate] |  |
| 299 |  | COC(=N)c1nc2ccc3ncnc(Nc4cc(OC)cc(OC)c4)c3c2s1 [Compound 7g, Methyl 9-(3,5-dimethoxyphenylamino)thiazolo[5,4-f]quinazoline-2-carbimidate] |  |
| 42.7 | 72 | COC(=N)c1nc2ccc3ncnc(Nc4cccc(C#N)c4)c3c2s1 [Compound 9f, Methyl 9-(3-cyanophenylamino)thiazolo[5,4-f]quinazoline-2-carbimidate] |  |
|  | 4.2 | COC(=N)c1nc2ccc3ncnc(Nc4ccc5c(c4)OCO5)c3c2s1 [Compound 7b, methyl 9-(benzo[d][1,3]dioxol-5-ylamino)thiazolo[5,4-f]quinazoline-2-carbimidate] |  |
| 40.8 | 46.3 | C#Cc1cccc(Nc2ncnc3ccc4nc(C(=N)OC)sc4c23)c1 [Compound 9d, Methyl 9-(3-ethynylphenylamino)thiazolo[5,4-f]quinazoline-2-carbimidate] |  |
| 8.63 | 11 | COC(=N)c1nc2ccc3ncnc(Nc4ccc(O)c(F)c4)c3c2s1 [Compound 8j, Methyl 9-(3-fluoro-4-hydroxyphenylamino)thiazolo[5,4-f]quinazoline-2-carbimidate] |  |
| 9.53 | 11.1 | COC(=N)c1nc2ccc3ncnc(Nc4ccc(OC)cc4OC)c3c2s1 [Compound 7f, Methyl 9-(2,4-dimethoxyphenylamino)thiazolo[5,4-f]quinazoline-2-carbimidate] |  |
| 13.1 | 19.2 | COC(=N)c1nc2ccc3ncnc(Nc4ccc(OC)cc4)c3c2s1 [Compound 7a, Methyl 9-(4-methoxyphenylamino)thiazolo[5,4-f]quinazoline-2-carbimidate] |  |
|  | 161 | COC(=N)c1nc2ccc3ncnc(Nc4ccc(OC)c(OC)c4)c3c2s1 [Compound 7e, Methyl 9-(3,4-dimethoxyphenylamino)thiazolo[5,4-f]quinazoline-2-carbimidate] |  |
| 39 | 93.8 | COC(=N)c1nc2ccc3ncnc(Nc4ccc(C(C)(C)C)cc4)c3c2s1 [Compound 9c, Methyl 9-(4-tert-butylphenylamino)thiazolo[5,4-f]quinazoline-2-carbimidate] |  |
| 3.89 | 7.69 | COC(=N)c1nc2ccc3ncnc(Nc4ccc(C#N)cc4)c3c2s1 [Compound 9e, Methyl 9-(4-cyanophenylamino)thiazolo[5,4-f]quinazoline-2-carbimidate] |  |
| 124 |  | COC(=N)c1nc2ccc3ncnc(Nc4ccc(OC)c([N+](=O)[O-])c4)c3c2s1 [Compound 7h, Methyl 9-(4-methoxy-3-nitrophenylamino)thiazolo[5,4-f]quinazoline-2-carbimidate] |  |
| 8 |  | COC(=N)c1nc2ccc3ncnc(Nc4ccc5c(c4)OCCO5)c3c2s1 [Compound 7c, Methyl 9-(2,3-dihydrobenzo[b][1,4]dioxin-6-ylamino)thiazolo[5,4-f]quinazoline-2-carbimidate] |  |
| 1.81 | 3.48 | COC(=N)c1nc2ccc3ncnc(Nc4ccccc4)c3c2s1 [Compound 9a, Methyl 9-(phenylamino)thiazolo[5,4-f]quinazoline-2-carbimidate] |  |

| SMILES | IC50 (DYRK1A) [nM] | IC50 (DYRK1B) [nM] | also measured |
| --- | --- | --- | --- |
| COC(=N)c1nc2ccc3ncnc(Nc4ccc(Cl)cc4Cl)c3c2s1 [Compound 8c, Methyl 9-(2,4-dichlorophenylamino)thiazolo[5,4-f]quinazoline-2-carbimidate] | 0.22 | 0.28 | Activity in patient-derived ovarian cancer ascites spheroids [2]: promising activities; Toxicity in mice (Panc1 xenograft model) (Panc1 xenograft): without detectable toxicity; In vivo activity in Panc1 xenograft model (Panc1 xenograft; mice): in vivo activities |
